Reference: patent publication US20230255906A1, “Targeting Serpin B9 in Cancer” (The Brigham and Women`s Hospital, Inc., priority 2020, published 2023)
Residues, ends and D or L forms follow the SMILES beside them. *: point of attachment. Cbz = O=C(OCc1ccccc1)*; CH2Cl = ClC*

Tests used:
[1] = tested on: B16-WT and B16-Sb9 KO cells; assay: IL2-induced GrB expression and apoptosis by flow cytometry; type: cell-based, mouse; conditions: 10 μM; IL2 70 ng/mL, 48 h
Excerpt: FIG. 1H. […] Data are expressed as means±SD from three independent experiments. ***P<0.001 (Student's t-test).
FIGS. 1J-1K. […] Cells treated with PBS alone were used as a negative control. Data are expressed as means±SD from three independent experiments. *P<0.05, ***P<0.001 (Student's t-test).

[2] = target: T1, MBP-Sb9 (Homo sapiens, UniProt P50453); assay: Surface plasmon resonance (SPR) binding; conditions: 25° C., 1:1 Langmuir model
T1 construct: made in house
Protocol: Surface plasmon resonance (SPR) measures change in refractive index on a biosensor surface, as analytic mass accumulates via binding to an attached ligand. This allows derivation of affinity (KD) from measured kinetic rates of association (ka) and dissociation (kd). All assays were run at 25° C. on a BiOptix 404pi. An NTA biosensor chip was used in this study to pre-concentrate 3 μM MBP-Sb9 via an N-terminal His-tag. MBP-Sb9 was covalently immobilized with EDC/NHS in 20 mM HEPES pH 8.0, 150 mM NaCl, 0.05% Tween-20, 5 mM β-ME to 10,000 to 15,000 RUs. MBP was similarly immobilized on a separate channel as a negative control. Compounds were injected as 3-fold serial dilutions in duplicate starting at 200 μM. Injections were done at 50 μL/min for 60 seconds, followed by a 120 second dissociation in 20 mM HEPES, pH 8.0, 150 mM NaCl, 0.05% Tween-20, 5 mM j-ME, 1% DMSO. A series of five DMSO standards between 0.5% and 1.5% were included with each run to correct for bulk refractive index. Sensorgrams were analyzed using Scrubber 2 software with a double reference and fit to a 1:1 Langmuir model to determine the interaction parameters KD, ka, and kd.

[3] = target: MBP (Escherichia coli, UniProt P0AEX9); assay: SPR negative control channel; type: binding
Protocol: FIG. 4B. Sensorgrams of compounds 3,4-dihydroxybenzoic acid (top), 3-oxo-1-indancarboxylic acid (middle), and the compound of Formula (III) (bottom) show the binding of 3,4-dihydroxybenzoic acid and the compound of Formula (III) to Sb9 (top), but not to MBP (bottom) by Surface Plasmon Resonance (SPR).
All assays were run at 25° C. on a BiOptix 404pi. An NTA biosensor chip was used in this study to pre-concentrate 3 μM MBP-Sb9 via an N-terminal His-tag. MBP-Sb9 was covalently immobilized with EDC/NHS in 20 mM HEPES pH 8.0, 150 mM NaCl, 0.05% Tween-20, 5 mM β-ME to 10,000 to 15,000 RUs. MBP was similarly immobilized on a separate channel as a negative control.

[4] = tested on: MBP-Sb9; assay: Thermal stability assay (TSA) fragment screen; type: binding; conditions: 5000 to 21 μM
Protocol: FIG. 4A. The upper panels show the TSA results of the MBP-Sb9 protein incubated with 5 mM 3,4-dihydroxybenzoic acid (3,4-DHBA; left) and 3-oxo-1-indancarboxylic acid (right), or with 2.5% DMSO. The thermal shifts of the compounds 3,4-dihydroxybenzoic acid and 3-oxo-1-indancarboxylic acid are shown in a thick dark line against a baseline control shown as a thin gray line. The bottom panels show the TSA results of the MBP-Sb9 protein incubated with 3,4-dihydroxybenzoic acid (left) or 3-oxo-1-indancarboxylic acid (right) at different concentrations, including 5000, 1667, 556, 185, 62, and 21 μM. The concentration-response curves are plotted in a black/gray color scale (higher intensity is higher concentration) and the straight line plots represent the compound background signal.
TSA is an analytic tool to estimate the overall stability of a protein by monitoring the shift in its melting temperature upon changing the buffer conditions or titrating various ligands. As the protein unfolds with increasing temperature in a thermal cycler (CFX384 Touch Real-Time PCR Detection System), SYPRO orange dye binds to the exposed hydrophobic core and fluoresces, leading to the signal that is measured in comparison to temperature to produce a melt curve. […] Dye was added at 2×strength, and the readings were performed from 25° C. to 95° C. at 0.5° C. intervals. […]

T1 sequence (P50453 whole entry): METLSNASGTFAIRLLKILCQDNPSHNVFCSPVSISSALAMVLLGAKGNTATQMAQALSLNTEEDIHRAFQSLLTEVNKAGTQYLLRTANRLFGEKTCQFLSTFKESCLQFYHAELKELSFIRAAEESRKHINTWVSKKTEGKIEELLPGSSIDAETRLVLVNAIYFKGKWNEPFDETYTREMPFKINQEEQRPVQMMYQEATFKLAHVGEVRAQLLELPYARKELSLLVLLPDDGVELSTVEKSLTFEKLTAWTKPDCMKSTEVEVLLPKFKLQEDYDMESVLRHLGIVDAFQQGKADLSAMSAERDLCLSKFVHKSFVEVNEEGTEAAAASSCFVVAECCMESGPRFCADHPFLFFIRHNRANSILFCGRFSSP

Compound | apoptosis of IL2-treated cells [1] | Kd [2] [µM] | binding to MBP (negative control) [3] | Tm1 shift [4]
C[C@H](NC(=O)OCc1ccccc1)C(=O)N[C@@H](C)C(=O)N[C@@H](CC(=O)O)C(=O)CCl [GrB inhibitor (368050)] (Cbz-Ala-Ala-Asp-CH2Cl) | suppresses apoptosis |  |  | 
O=C(O)c1ccc(O)c(O)c1 [3,4-dihydroxybenzoic acid, reference compound] |  | 88 | not to MBP | dose-dependent Tm1 shift
